In patent US9012456B2, “Compounds, pharmaceutical compositions and uses thereof” (Boehringer Ingelheim International GmbH, priority 2012, dated 2015):

Target: T1, human GPR119 (Homo sapiens, UniProt Q8TDV5)
T1 construct: expressed in transfected cells
T1 sequence (Q8TDV5 1-335): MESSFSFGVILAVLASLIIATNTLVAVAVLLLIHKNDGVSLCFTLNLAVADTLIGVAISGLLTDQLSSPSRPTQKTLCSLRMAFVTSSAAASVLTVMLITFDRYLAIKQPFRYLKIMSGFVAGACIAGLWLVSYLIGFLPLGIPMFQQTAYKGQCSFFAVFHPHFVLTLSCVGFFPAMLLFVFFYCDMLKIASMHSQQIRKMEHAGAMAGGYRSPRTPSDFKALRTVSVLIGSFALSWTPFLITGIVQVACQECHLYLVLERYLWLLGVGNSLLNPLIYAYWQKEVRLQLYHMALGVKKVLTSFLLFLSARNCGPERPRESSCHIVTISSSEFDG
Test: AlphaScreen cAMP assay in Min-6/hGPR119 cells (activation of GPR119, stimulation of intracellular cAMP)
Type: cell-based
Conditions: MIN6 cells stably transfected with human GPR119; 45 min incubation at room temperature; cAMP by AlphaScreen
Procedure: The compounds of formula I according to the invention modulate the activity of the G-protein-coupled receptor GPR119. The effect of the compounds on the activation of GPR119 and on the stimulation of intracellular cAMP concentration is determined using the AlphaScreen cAMP Assay Kit (Cat. No. #6760625R) made by PerkinElmer.
MIN6 cells [Miyazaki J et al., Endocrinology. 1990 July; 127(1):126-32] are stably transfected with an expression vector for human GPR119 cDNA (Acc. No. NP_848566). Min-6/hGPR119 cells are cultured in DMEM, 10% FBS, 50 μM β-mercaptoethanol, 0.3 mg/mL Geniticin, 2 mM GlutaMAX at 37° C., 5% CO2. For the assay, the cells are seeded in Optiplates (white, 384-well, 160W-barcoded, TC, sterile with lid, Cat. No. #6007688 (Perkin Elmer); 10000 cells/well; 50 μL). The plates covered with lids are then incubated for 24 hours at 37° C., 5% CO2. After the medium is aspirated from the wells completely, 10 μl of the test compound are added, the compounds are diluted using stimulating buffer (140 mM NaCl, 3.6 mM KCl, 0.5 mM NaH2PO4, 0.5 mM MgSO4, 1.5 mM CaCl2, 10 mM Hepes, 5 mM NaHCO3; pH 7.4. 0.5 mM IBMX and 0.1% BSA, the final DMSO concentration is 1%). After 45 minutes incubation at room temperature (approx. 20° C.), the cAMP concentrations are determined using the AlphaScreen cAMP Assay Kit (Cat. No. #6760625R from PerkinElmer).

In order of rising EC50:
1. CC(C)(C)OC(=O)N1CCC(c2cc3cc(C4=CCN(S(C)(=O)=O)CC4)ncc3o2)CC1 [Example 14, 4-[5-(1-Methanesulfonyl-1,2,3,6-tetrahydro-pyridin-4-yl)-furo[2,3-c]pyridin-2-yl]-piperidine-1-carboxylic acid tert-butyl ester]  9 nM
2. CC(C)(C)OC(=O)N1CCC(c2cc3cc(-c4ccc(S(C)(=O)=O)cc4F)ncc3o2)CC1 [Example 3, 4-[5-(2-Fluoro-4-methanesulfonyl-phenyl)-furo[2,3-c]pyridin-2-yl]-piperidine-1-carboxylic acid tert-butyl ester]  9 nM
3. CC1(OC(=O)N2CCC(c3cc4cc(C5=CCN(S(C)(=O)=O)CC5)ncc4o3)CC2)CC1 [Example 22, 4-[5-(1-Methanesulfonyl-1,2,3,6-tetrahydro-pyridin-4-yl)-furo[2,3-c]pyridin-2-yl]-piperidine-1-carboxylic acid 1-methyl-cyclopropyl ester]  10 nM
4. CC(C)OC(=O)N1CCC(c2cc3cc(-c4ccc(S(C)(=O)=O)cc4F)ncc3o2)CC1 [Example 19, 4-[5-(2-Fluoro-4-methanesulfonyl-phenyl)-furo[2,3-c]pyridin-2-yl]-piperidine-1-carboxylic acid isopropyl ester]  12 nM
5. CC1(OC(=O)N2CCC(c3cc4cc(-c5ccc(S(C)(=O)=O)cc5F)ncc4o3)CC2)CC1 [Example 20, 4-[5-(2-Fluoro-4-methanesulfonyl-phenyl)-furo[2,3-c]pyridin-2-yl]-piperidine-1-carboxylic acid 1-methyl-cyclopropyl ester]  13 nM
6. CS(=O)(=O)N1CC=C(c2cc3cc(C4CCN(c5nnc(C(F)(F)F)s5)CC4)oc3cn2)CC1 [Example 26, 5-(1-Methanesulfonyl-1,2,3,6-tetrahydro-pyridin-4-yl)-2-[1-(5-trifluoromethyl-[1,3,4]thiadiazol-2-yl)-piperidin-4-yl]-furo[2,3-c]pyridine]  18 nM
7. CC(C)OC(=O)N1CCC(c2cc3cc(C4=CCN(S(C)(=O)=O)CC4)ncc3o2)CC1 [Example 21, 4-[5-(1-Methanesulfonyl-1,2,3,6-tetrahydro-pyridin-4-yl)-furo[2,3-c]pyridin-2-yl]-piperidine-1-carboxylic acid isopropyl ester]  19 nM
8. CS(=O)(=O)N1CC=C(c2cc3cc(C4CCN(CC5(C(F)(F)F)CC5)CC4)oc3cn2)CC1 [Example 24, 5-(1-Methanesulfonyl-1,2,3,6-tetrahydro-pyridin-4-yl)-2-[1-(1-trifluoromethyl-cyclopropylmethyl)-piperidin-4-yl]-furo[2,3-c]pyridine]  28 nM
9. CS(=O)(=O)N1CC=C(c2cc3cc(C4CCN(c5ncc(Cl)cn5)CC4)oc3cn2)CC1 [Example 25, 2-[1-(5-Chloro-pyrimidin-2-yl)-piperidin-4-yl]-5-(1-methanesulfonyl-1,2,3,6-tetrahydro-pyridin-4-yl)-furo[2,3-c]pyridine]  41 nM
10. CCNC(=O)c1ccc(-c2cc3cc(C4CCN(C(=O)OC(C)(C)C)CC4)oc3cn2)cc1 [Example 6, 4-[5-(4-Ethylcarbamoyl-phenyl)-furo[2,3-c]pyridin-2-yl]-piperidine-1-carboxylic acid tert-butyl ester]  45 nM
11. CS(=O)(=O)c1ccc(-c2cc3cc(C4CCN(CC5(C(F)(F)F)CC5)CC4)oc3cn2)c(F)c1 [Example 17, 5-(2-Fluoro-4-methanesulfonyl-phenyl)-2-[1-(1-trifluoromethyl-cyclopropylmethyl)-piperidin-4-yl]-furo[2,3-c]pyridine]  51 nM
12. CC(C)(C)OC(=O)N1CCC(c2cc3cc(-c4ccc(S(C)(=O)=O)cc4)ncc3o2)CC1 [Example 1, 4-[5-(4-Methanesulfonyl-phenyl)-furo[2,3-c]pyridin-2-yl]-piperidine-1-carboxylic acid tert-butyl ester]  58 nM
13. CC(C)(C)OC(=O)N1CCC(c2cc3cc(-c4ccc(S(C)(=O)=O)c(F)c4)ncc3o2)CC1 [Example 2, 4-[5-(3-Fluoro-4-methanesulfonyl-phenyl)-furo[2,3-c]pyridin-2-yl]-piperidine-1-carboxylic acid tert-butyl ester]  62 nM
14. CCc1cnc(N2CCC(c3cc4cc(-c5ccc(S(C)(=O)=O)cc5F)ncc4o3)CC2)nc1 [Example 16, 2-[1-(5-Ethyl-pyrimidin-2-yl)-piperidin-4-yl]-5-(2-fluoro-4-methanesulfonyl-phenyl)-furo[2,3-c]pyridine]  64 nM
15. CC(C)(C)OC(=O)N1CCC(C)(c2cc3cc(C4=CCN(S(C)(=O)=O)CC4)ncc3o2)CC1 [Example 28, 4-[5-(1-Methanesulfonyl-1,2,3,6-tetrahydro-pyridin-4-yl)-furo[2,3-c]pyridin-2-yl]-4-methyl-piperidine-1-carboxylic acid tert-butyl ester]  73 nM
16. CC(C)(F)CN1CCC(c2cc3cc(-c4ccc(S(C)(=O)=O)cc4F)ncc3o2)CC1 [Example 18, 5-(2-Fluoro-4-methanesulfonyl-phenyl)-2-[1-(2-fluoro-2-methyl-propyl)-piperidin-4-yl]-furo[2,3-c]pyridine]  79 nM
17. CC(C)(C)OC(=O)N1CCC(c2cc3cc(N4CCN(S(C)(=O)=O)CC4)ncc3o2)CC1 [Example 13, 4-[5-(4-Methanesulfonyl-piperazin-1-yl)-furo[2,3-c]pyridin-2-yl]-piperidine-1-carboxylic acid tert-butyl ester]  82 nM
18. CS(=O)(=O)N1CC=C(c2cc3cc(C4CCN(c5ccc(C(F)(F)F)cn5)CC4)oc3cn2)CC1 [Example 23, 4-[5-(1-Methanesulfonyl-1,2,3,6-tetrahydro-pyridin-4-yl)-furo[2,3-c]pyridin-2-yl]-5′-trifluoromethyl-3,4,5,6-tetrahydro-2H-[1,2′]bipyridinyl]  86 nM
19. CC(C)(C)OC(=O)N1CCC(c2cc3cc(-c4ccc(CS(C)(=O)=O)cc4)ncc3o2)CC1 [Example 12, 4-[5-(4-Methanesulfonylmethyl-phenyl)-furo[2,3-c]pyridin-2-yl]-piperidine-1-carboxylic acid tert-butyl ester]  105 nM
20. CC(C)(C)OC(=O)N1CCC(c2cc3cc(-c4ccc(C(N)=O)cc4F)ncc3o2)CC1 [Example 7, 4-[5-(2-Fluoro-4-aminocarbonyl-phenyl)-furo[2,3-c]pyridin-2-yl]-piperidine-1-carboxylic acid tert-butyl ester]  108 nM
21. CC(C)(C)OC(=O)N1CCC(c2cc3cc(-c4ccc(NS(C)(=O)=O)cc4)ncc3o2)CC1 [Example 4, 4-[5-(4-Methanesulfonylamino-phenyl)-furo[2,3-c]pyridin-2-yl]-piperidine-1-carboxylic acid tert-butyl ester]  121 nM
22. CC(C)(C)OC(=O)N1CCC(C)(c2cc3cc(-c4ccc(S(C)(=O)=O)cc4)ncc3o2)CC1 [Example 27, 4-[5-(4-Methanesulfonyl-phenyl)-furo[2,3-c]pyridin-2-yl]-4-methyl-piperidine-1-carboxylic acid tert-butyl ester]  140 nM
23. CC(C)(C)OC(=O)N1CCC(c2cc3cc(-c4ccncc4F)ncc3o2)CC1 [Example 15, 4-[5-(3-Fluoro-pyridin-4-yl)-furo[2,3-c]pyridin-2-yl]-piperidine-1-carboxylic acid tert-butyl ester]  233 nM
24. CC(C)(C)OC(=O)N1CCC(c2cc3cc(-c4ccc(C#N)c(F)c4)ncc3o2)CC1 [Example 5, 4-[5-(4-Cyano-3-fluoro-phenyl)-furo[2,3-c]pyridin-2-yl]-piperidine-1-carboxylic acid tert-butyl ester]  263 nM
25. CC(C)(C)OC(=O)N1CCC(c2cc3cc(-c4ccc(C#N)cc4F)ncc3o2)CC1 [Example 8, 4-[5-(4-Cyano-2-fluoro-phenyl)-furo[2,3-c]pyridin-2-yl]-piperidine-1-carboxylic acid tert-butyl ester]  281 nM
26. CC(C)(C)OC(=O)N1CCC(c2cc3cc(-c4ccncc4)ncc3o2)CC1 [Example 11, 4-(5-Pyridin-4-yl-furo[2,3-c]pyridin-2-yl)-piperidine-1-carboxylic acid tert-butyl ester]  310 nM
27. CC(C)(C)OC(=O)N1CCC(c2cc3cc(-c4ccc(C(=O)OCc5ccccc5)cc4)ncc3o2)CC1 [Example 9, 4-[5-(4-Benzyloxycarbonyl-phenyl)-furo[2,3-c]pyridin-2-yl]-piperidine-1-carboxylic acid tert-butyl ester]  567 nM
28. CC(C)(C)OC(=O)N1CCC(c2cc3cc(-c4cnco4)ncc3o2)CC1 [Example 10, 4-(5-Oxazol-5-yl-furo[2,3-c]pyridin-2-yl)-piperidine-1-carboxylic acid tert-butyl ester]  592 nM
